“And” between values parts separate entries of the source, which are not always exact repeats. Equal values may be shown once. Toxic doses and inconclusive results are not listed. How the source made its calls: active means survival T/C of 150% or more; inactive means T/C below 125% in these data.
Tested on: P388 leukemia ip, CD2F1 mice, survival T/C
Assay: NCI In Vivo Anticancer Drug Screen. Data for tumor model P388 Leukemia (intraperitoneal) in CD2F1 (CDF1) mice
Details: endpoint: median survival time, higher = longer survival
Method in brief: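 Mice carrying the transplanted tumor received test compound or vehicle. Survival was recorded in each group, and the value is the treated-group measurement divided by that of the vehicle-treated control group.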

[1] = dose: 50.0 mg/kg/injection, schedule: Q01DX009 (ip), vehicle: saline with Tween-80
[2] = dose: 100.0 mg/kg/injection, schedule: Q01DX009 (ip), vehicle: saline with Tween-80

Measured: T/C

CC(=O)OC1CC2(C)CCC3C(C)C(=O)OC3C2C(C)C1=O (configuration not stated)
inactive: dose: 100.0 mg/kg/injection, schedule: Q04DX002 (ip), vehicle: saline with Tween-80 100 % of control | dose: 200.0 mg/kg/injection, schedule: Q04DX002 (ip), vehicle: saline with Tween-80 100 % of control | dose: 400.0 mg/kg/injection, schedule: Q04DX002 (ip), vehicle: saline with Tween-80 99 % of control and 100 % of control

CSC1=CC(=NCc2ccccc2)CC(C)(C)S1
inactive: dose: 15.0 mg/kg/injection, schedule: Q01DX005 (ip), vehicle: Klucel (hydroxypropylcellulose) (HPC) 110 % of control | dose: 30.0 mg/kg/injection, schedule: Q01DX005 (ip), vehicle: Klucel (hydroxypropylcellulose) (HPC) 104 % of control | dose: 60.0 mg/kg/injection, schedule: Q01DX005 (ip), vehicle: Klucel (hydroxypropylcellulose) (HPC) 101 % of control and 105 % of control

CC(C)=NOCCC#N
inactive: dose: 60.0 mg/kg/injection, schedule: Q01DX005 (ip), vehicle: saline 99 % of control | dose: 120.0 mg/kg/injection, schedule: Q01DX005 (ip), vehicle: saline 99 % of control | dose: 240.0 mg/kg/injection, schedule: Q01DX005 (ip), vehicle: saline 101 % of control

O=C(O)C(Cc1cnc[nH]1)[N-]C[N-]C(Cc1cnc[nH]1)C(=O)O.[Pd+2] (configuration not stated)
inactive: dose: 50.0 mg/kg/injection, schedule: Q01DX005 (ip), vehicle: saline 100 % of control | dose: 100.0 mg/kg/injection, schedule: Q01DX005 (ip), vehicle: saline 97 % of control | dose: 200.0 mg/kg/injection, schedule: Q01DX005 (ip), vehicle: saline 100 % of control

Cc1ccc2c(ccc(/C=C\c3cc(C)c4cccnc4c3O)[n+]2C)c1
inactive: dose: 0.78 mg/kg/injection, schedule: Q01DX009 (ip), vehicle: saline with Tween-80 124 % of control | dose: 1.56 mg/kg/injection, schedule: Q01DX009 (ip), vehicle: saline with Tween-80 122 % of control | dose: 3.13 mg/kg/injection, schedule: Q01DX009 (ip), vehicle: saline with Tween-80 121 % of control

O=C(O)C(=O)O.O=N[O-].[Co+3].[NH-]CC[N-]CC[NH-]
inactive: dose: 25.0 mg/kg/injection, schedule: Q01DX009 (ip), vehicle: saline with Tween-80 108 % of control | [1] 108 % of control

O=CC1CO1 (configuration not stated)
inactive: dose: 12.5 mg/kg/injection, schedule: Q01DX009 (ip), vehicle: saline 109 % of control | dose: 12.5 mg/kg/injection, schedule: Q04DX003 (ip), vehicle: saline 112 % of control | dose: 25.0 mg/kg/injection, schedule: Q01DX009 (ip), vehicle: saline 118 % of control | dose: 25.0 mg/kg/injection, schedule: Q04DX003 (ip), vehicle: saline 104 % of control | dose: 50.0 mg/kg/injection, schedule: Q04DX003 (ip), vehicle: saline 116 % of control

CCOC(=O)c1ccc(NC(=S)Nc2ccccc2C(F)(F)F)cc1
inactive: dose: 50.0 mg/kg/injection, schedule: Q01DX009 (ip), vehicle: Klucel (hydroxypropylcellulose) (HPC) 100 % of control | dose: 100.0 mg/kg/injection, schedule: Q01DX009 (ip), vehicle: Klucel (hydroxypropylcellulose) (HPC) 100 % of control | dose: 200.0 mg/kg/injection, schedule: Q01DX009 (ip), vehicle: Klucel (hydroxypropylcellulose) (HPC) 92 % of control

CNc1ncnc2[nH]ncc12
inactive: [1] 100 % of control | dose: 200.0 mg/kg/injection, schedule: Q04DX003 (ip), vehicle: saline sonified 109 % of control

COc1ccc(C(C)(O)C2CC2)cc1 (configuration not stated)
inactive: dose: 100.0 mg/kg/injection, schedule: Q01DX001 (ip), vehicle: Klucel (hydroxypropylcellulose) (HPC) 107 % of control | dose: 200.0 mg/kg/injection, schedule: Q01DX001 (ip), vehicle: Klucel (hydroxypropylcellulose) (HPC) 103 % of control | dose: 400.0 mg/kg/injection, schedule: Q01DX001 (ip), vehicle: Klucel (hydroxypropylcellulose) (HPC) 103 % of control

CCCCC(CC)C(=O)OCCCNC(=O)C(C)OC(=O)C(CC)CCCC (configuration not stated)
inactive: dose: 50.0 mg/kg/injection, schedule: Q01DX005 (ip), vehicle: saline with Tween-80 104 % of control | dose: 100.0 mg/kg/injection, schedule: Q01DX005 (ip), vehicle: saline with Tween-80 87 % of control | dose: 200.0 mg/kg/injection, schedule: Q01DX005 (ip), vehicle: saline with Tween-80 104 % of control

COc1ccc2c(N)c3c4ccccc4cc[n+]3cc2c1OC
inactive: dose: 3.13 mg/kg/injection, schedule: Q04DX003 (ip), vehicle: water 106 % of control and 112 % of control | dose: 6.25 mg/kg/injection, schedule: Q04DX003 (ip), vehicle: water 106 % of control and 114 % of control | dose: 12.5 mg/kg/injection, schedule: Q04DX003 (ip), vehicle: water 112 % of control | dose: 25.0 mg/kg/injection, schedule: Q04DX003 (ip), vehicle: water 121 % of control

c1ccc2c(c1)nc1n2CC2(CS1)CSc1nc3ccccc3n1C2
inactive: [1] 88 % of control | [2] 91 % of control

CN(NC(=O)C(=O)NCc1ccco1)C(=O)Nc1ccc(Cl)cc1
inactive: [1] 103 % of control | [2] 100 % of control | dose: 200.0 mg/kg/injection, schedule: Q01DX009 (ip), vehicle: saline with Tween-80 92 % of control

Reference: PubChem BioAssay AID330 (DTP/NCI, 2004)
